Source: US12691109B2, “Bifunctional aggregation-induced emission luminogen for monitoring and killing of multidrug-resistant bacteria” (The Hong Kong University of Science and Technology, priority 2018, dated 2026)

What was measured:
Assay type in all cases: cell-based
MDR S. epidermidis [1] = experiment: Bacteria staining with TriPE-NT and PI, CLSM; conditions: 10 min
Procedure: (§1) FIG. 21B is a graph plotting stained percentages for E. coli, MDR E. coli, K. pneumoniae, MDR K. pneumoniae, S. epidermidis, MDR S. epidermidis, S. aureus, and MDR S. aureus.
(§2) FIG. 21C is a graph plotting percentage of dead bacteria stained by propidium iodine (PI) after the bacteria were incubated with 10 μM of TriPE-NT or PI for 10 min.
(§3) TriPE-NT: Ex=405 nm, Em=500-560 nm; PI: Ex=514, Em=600-700.
(§4) To indicate the status of the bacteria after TriPE-NT treatment, the bacteria was incubated with commercial dead bacteria-staining fluorescent reagent propidium iodide (PI) and TriPE-NT at the same time. Thanks to the AIE characteristics and water solubility of TriPE-NT, there was almost no background fluorescence in the imaging field. E. coli and S. epidermidis, which emitted bright orange (TriPE-NT) or red (PI) fluorescence, are clearly visualized under confocal laser scanning microscope (CLSM) (FIG. 21A-C, 22-23). […] In comparison, relatively low percentage of Gram-negative bacteria were stained by TriPE-NT (e.g., 88.1±9.8% E. coli, 84.3±12.7% MDR E. coli, 47.9±7.7% K. pneumoniae and 35.8±4.9% MDR K. pneumoniae) (FIG. 21B, FIG. 22). […] By contrast, relatively low percentages of E. coli (22.1±12.2% E. coli) were co-stained by both TriPE-NT and PI (FIGS. 21A, C), which is also similar to other Gram-negative bacteria (15.3±3.7%, MDR E. coli, 8.8±3.2%, K. pneumoniae and 6.4±2.6% MDR K. pneumoniae) (FIGS. 21A & C, 22). The reason for this difference possibly is ascribed to the extra membrane of Gram-negative bacteria which is absent in Gram-positive bacteria. These observations also illustrated that both Gram-negative bacteria and Gram-positive bacteria are vulnerable to TriPE-NT treatment, the possible reason is that these bacteria with negatively charged membranes, could anchor, uptake, and aggregate the positively charged probe, which restricts the intramolecular motion of the probe and causes their fluorescence emission.

MDR S. aureus [2] = experiment: Bacteria staining with TriPE-NT and PI, CLSM; conditions: 10 min
Procedure: as §1, §2, §3, §4

S. aureus = experiment: Bacteria staining with TriPE-NT and PI, CLSM; conditions: 10 min
Procedure: as §1, §2, §3, §4

[3] = tested on: human skin fibroblast cells (HAFs); experiment: Cytotoxicity, CCK-8 kit
Procedure: (§5) FIGS. 18A-B are graphs depicting cell viability of human amniotic fluid stem cells (HAFs) and human umbilical vein endothelial cells (HUVECs) after incubation with TriPE-NT at different concentrations of 0, 2, 5, 10 and 20 μM under dark conditions and upon white-light illumination (4 mW cm^−2) for 2 and 30 min.
(§6) Cytotoxicity of the TriPE-NT was tested because a good antibacterial drug should have the ability to kill only bacteria and have no toxicity to human or animal cells. The biocompatibility of TriPE-NT was evaluated by CCK-8 kit.

[4] = tested on: human umbilical vein endothelial cells (HUVECs); experiment: Cytotoxicity, CCK-8 kit
Procedure: as §5, §6

S. epidermidis = experiment: Morphological changes of bacteria by FE-SEM and FEHR-TEM; conditions: TriPE-NT without or with light irradiation (4 mW cm^−2, 30 min)
Source text: (§7) FIGS. 24A-E show images of TriPE-NT-induced morphological changes of E. coli, MDR E. coli, S. epidermidis and MDR S. epidermidis with white light irradiation by FE-SEM and FEHR-TEM, bacteria without treatment were set as controls. […] FIG. 24D is a graph plotting elemental curve measured on the super-thin slices of TriPE-NT-treated E. coli from the region marked by the rectangle in FIG. 24C. FIG. 24 E is a graph plotting the elemental curve measured on the super-thin slices of TriPE-NT-treated S. epidermidis from the region marked by rectangle in FIG. 24C.
(§8) To gain more insights into the TriPE-NT-bacteria interactions, FE-SEM and field-emission high resolution transmission electron microscope (FEHR-TEM) were used to visualize the morphological changes of the bacteria under TriPE-NT treatment, selecting E. coli (G−), MDR E. coli (G−), and S. epidermidis (G+), MDR S. epidermidis (G+) as representatives.

MDR S. epidermidis [5] = experiment: as above; conditions: TriPE-NT without or with light irradiation (4 mW cm^−2, 30 min)
Source text: as §7, §8

E. coli = experiment: as above
Source text: as §7, §8

MDR E. coli [6] = experiment: as above
Source text: as §7, §8

MDR S. epidermidis [7] = experiment: Light-enhanced bacteria killing, plate counting method; conditions: in darkness, 10 μM TriPE-NT
Procedure: (§9) FIGS. 15C-F are graphs depicting bacteria survival rates for bacteria that were incubated with TriPE-NT (10 μM) for 10 min, the bacteria suspensions (50 μL) were plated on agar plates and treated by white-light illumination (4 mW cm^−2) for 0, 2 and 30 min respectively. FIG. 15C is a graph plotting survival rate versus time of E. coli and MDR E. coli. FIG. 15D is a graph plotting survival rate versus time of K. pneumoniae and MDR K. pneumoniae. FIG. 15E is a graph plotting survival rate versus time of S. epidermidis and MDR S. epidermidis. FIG. 15F is a graph plotting survival rate versus time of S. aureus and MDR S. aureus.
(§10) The bacteria killing effect of TriPE-NT was evaluated on both wild and clinically isolated MDR bacteria by a traditional plate counting method. First, E. coli and S. epidermidis, as the representative of Gram-negative (G−) and Gram-positive (G+) bacteria, were used to determine the effective bactericidal concentration and illumination time. The bacteria were incubated with TriPE-NT (0, 5, 10 μM) for 0 and 10 min, the bacteria suspensions (50 μL) were plated on agar plates and treated by white-light illumination (4 mW cm^−2) for 2, 10 and 30 min respectively (FIGS. 16A-B). […] Thus, 10 μM TriPE-NT and light irradiation for 2 min or 30 min were set as experimental conditions in the following experiments.

MDR E. coli [8] = experiment: as above
Procedure: as §9, §10

MDR S. aureus [9] = experiment: as above
Procedure: as §9, §10

K. pneumoniae = experiment: as above
Procedure: as §9, §10

[10] = 2, 5, 10 and 20 RM, absence of white light irradiation
[11] = white light 4 mW cm^−2, 2 and 30 min
[12] = TriPE-NT in the absence of white light
[13] = TriPE-NT with light irradiation
[14] = 10 μM, white light 4 mW cm^−2, 30 min

COc1ccc(C(=Cc2ccc(-c3ccc4c5c(cccc35)C(=O)N(CCCCn3c[n+](Cc5ccc(F)cc5F)cn3)C4=O)cc2)c2ccc(OC)cc2)cc1 [TriPE-NT]
percentage of MDR S. epidermidis co-stained by TriPE-NT and PI (dead bacteria) (MDR S. epidermidis [1]; 10 μM TriPE-NT and PI): 74.8±11.4% | percentage of MDR S. epidermidis stained by TriPE-NT (MDR S. epidermidis [1]; 10 μM): 92.9±6.6% | percentage of MDR S. aureus co-stained by TriPE-NT and PI (dead bacteria) (MDR S. aureus [2]; 10 μM TriPE-NT and PI): 57.4±1.3% | percentage of MDR S. aureus stained by TriPE-NT (MDR S. aureus [2]; 10 μM): 80.9±1.7% | percentage of S. aureus co-stained by TriPE-NT and PI (dead bacteria) (S. aureus; 10 μM TriPE-NT and PI): 67.3±12.2% | percentage of S. aureus stained by TriPE-NT (S. aureus; 10 μM): 86.1±1.9% | cell viability of HAFs [3, 10]: not significantly changed | cytotoxicity to HAFs with increase of irradiation time [3, 11]: no obvious cytotoxicity | cell viability of HUVECs [4, 10]: not significantly changed | cytotoxicity to HUVECs with increase of irradiation time [4, 11]: no obvious cytotoxicity | morphology of S. epidermidis (S. epidermidis): wrinkled bacterial cell wall | morphology of MDR S. epidermidis (MDR S. epidermidis [5]): wrinkled bacterial cell wall | morphology of E. coli (E. coli; [12]): obvious rough surface and damaged cell wall | morphology of E. coli (E. coli; [13]): cell wall fragmentations | morphology of MDR E. coli (MDR E. coli [6]; [12]): obvious rough surface and damaged cell wall | morphology of MDR E. coli (MDR E. coli [6]; [13]): cell wall fragmentations | killing of MDR S. epidermidis (MDR S. epidermidis [7]): killed nearly all | MDR E. coli killed (MDR E. coli [8]; [14]): more than 96% | survival rate of MDR E. coli (MDR E. coli [8]; in darkness, 10 μM TriPE-NT): ~14.1±1.4% | MDR S. aureus killed (MDR S. aureus [9]; [14]): > 97% | survival rate of MDR S. aureus (MDR S. aureus [9]; in darkness, 10 μM TriPE-NT): ~22.4±1.9% | K. pneumoniae killed (K. pneumoniae; [14]): > 90% | survival rate of K. pneumoniae (K. pneumoniae; in darkness, 10 μM TriPE-NT): ~59.9±6.5%
